Measurements published in patent US8026257B2 (Bristol-Myers Squibb Company, priority 2007, dated 2011).
pIC50: −log10 of the molar value.

Experiments:
[1] = background statement, literature reports; cited from earlier work
NK-1 = biological target: T1, NK-1 (Homo sapiens, UniProt P25103); experiment: NK1 radioligand binding assay ([125I]Substance P, U373 membranes); conditions: U373 cell membranes, 200 pM [125I]Substance P, 1 hour at room temperature
T1 construct: 30 ul/well of a 2×U373 membrane preparation
Procedure, shortened: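 Displacement of Kd-level [125I]Substance P (400 pM 2× stock) from U373 membranes in pH 7.5 Tris-Cl/MgCl2 buffer with protease inhibitors, 1 h, room temperature. Filtration onto GF/B, then scintillation counting. Percent inhibition, referenced to DMSO and L-733,060 wells, fitted by four-parameter equation to give IC50; triplicate plates.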

hSERT = hSERT (Homo sapiens, UniProt P31645); experiment: SERT radioligand binding assay ([125I]RTI-55, HEK-hSERT membranes); conditions: HEK-293 hSERT membranes, 260 pM [125I]RTI-55, 1 hour at room temperature; read-out: SERT IC50
Procedure, shortened: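 IC50 values derive from four-parameter fits of triplicate percent-inhibition curves, with DMSO as 0% and fluoxetine as 100%. Binding used [125I]RTI-55 at its Kd (520 pM 2× solution) and HEK-hSERT membranes (15 ug/ml 2×) in Tris/NaCl/KCl, pH 7.5, 1 hour, room temperature. Filter-bound radioactivity was counted.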

Sequence of hSERT (P31645 whole entry): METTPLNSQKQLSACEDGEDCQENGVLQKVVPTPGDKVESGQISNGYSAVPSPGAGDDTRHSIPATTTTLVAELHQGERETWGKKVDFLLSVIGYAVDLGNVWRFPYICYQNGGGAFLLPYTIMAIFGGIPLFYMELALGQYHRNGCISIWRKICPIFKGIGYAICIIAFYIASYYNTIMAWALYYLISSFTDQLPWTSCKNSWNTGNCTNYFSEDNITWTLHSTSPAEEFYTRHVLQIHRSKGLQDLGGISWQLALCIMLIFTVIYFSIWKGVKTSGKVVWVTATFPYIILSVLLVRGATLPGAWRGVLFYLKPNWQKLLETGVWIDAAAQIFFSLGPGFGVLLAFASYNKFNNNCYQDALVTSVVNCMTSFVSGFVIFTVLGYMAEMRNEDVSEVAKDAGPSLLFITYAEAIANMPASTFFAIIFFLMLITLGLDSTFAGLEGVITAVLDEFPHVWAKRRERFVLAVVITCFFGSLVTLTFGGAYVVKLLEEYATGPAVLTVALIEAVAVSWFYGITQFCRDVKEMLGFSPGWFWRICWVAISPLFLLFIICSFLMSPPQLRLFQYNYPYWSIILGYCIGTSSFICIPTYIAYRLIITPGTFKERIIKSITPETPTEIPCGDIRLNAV
T1 sequence (P25103 whole entry): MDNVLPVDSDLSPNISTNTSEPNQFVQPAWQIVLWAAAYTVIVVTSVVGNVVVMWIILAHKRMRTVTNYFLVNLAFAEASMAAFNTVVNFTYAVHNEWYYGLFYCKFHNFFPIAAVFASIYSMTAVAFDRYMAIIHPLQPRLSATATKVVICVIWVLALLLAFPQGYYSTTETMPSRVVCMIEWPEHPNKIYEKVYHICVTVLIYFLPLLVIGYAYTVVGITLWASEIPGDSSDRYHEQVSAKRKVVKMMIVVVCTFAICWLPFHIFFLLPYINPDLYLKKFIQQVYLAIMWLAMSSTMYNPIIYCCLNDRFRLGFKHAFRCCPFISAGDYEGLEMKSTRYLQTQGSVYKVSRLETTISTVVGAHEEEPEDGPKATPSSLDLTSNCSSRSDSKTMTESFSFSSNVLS

SMILES | antidepressant activity [1] | pIC50 (NK-1) | pIC50 (hSERT)
COc1ccc(OC(F)(F)F)cc1CN[C@H]1CCCN[C@H]1c1ccccc1 [CP-122,721] | Robust antidepressant activity |  | 
CN1CCC(COC(CC#N)c2cc(Cl)cc3cn[nH]c23)(c2ccc(F)cc2)CC1 (centres unmarked) [Example 110, 3-(5-chloro-1H-indazol-7-yl)-3-((4-(4-fluorophenyl)-1-methylpiperidine-4-yl)methoxy)propanenitrile] |  | 7.00 to 11.00 | 7.00 to 11.00
CN(C)CC(OCC1(c2ccc(F)cc2)CCNCC1)c1cc(Cl)cc2cn[nH]c12 (centres unmarked) [Example 111, 2-(5-chloro-1H-indazol-7-yl)-2-((4-(4-fluorophenyl)piperidine-4-yl)methoxy)-N,N-dimethylethanamine] |  | < 6.52 | 7.00 to 11.00
CN(C)CC(OCC1(c2ccc(F)cc2)CCN(C)CC1)c1cc(Cl)cc2cn[nH]c12 (centres unmarked) [Example 112, 2-(5-chloro-1H-indazol-7-yl)-2-((4-(4-fluorophenyl)-1-methylpiperidine-4-yl)methoxy)-N,N-dimethylethanamine] |  | < 6.52 | 6.52 to 7.00
CN1CCC(COC(c2cc(Cl)cc3cn[nH]c23)C(F)F)(c2ccc(F)cc2)CC1 (centres unmarked) [Example 113, 5-chloro-7(2,2-difluoro-1-((4-(4-fluorophenyl)-1-methylpiperidin-4-yl)methoxy)ethyl)-1H-indazole] |  | 7.00 to 11.00 | 7.00 to 11.00
CCC(OCC1(c2ccc(F)cc2)CCNCC1)c1cc(Cl)cc2cn[nH]c12 (centres unmarked) [Example 114, 5-chloro-7-(1-((4-(4-fluorophenyl)piperidin-4-yl)methoxy)propyl)-1H-indazole] |  | 7.00 to 11.00 | 7.00 to 11.00
CCC(OCC1(c2ccc(F)cc2)CCN(C)CC1)c1cc(Cl)cc2cn[nH]c12 (centres unmarked) [Example 115, 5-chloro-7-(1-((4-(4-fluorophenyl)-1-methylpiperidin-4-yl)methoxy)propyl)-1H-indazole] |  | 7.00 to 11.00 | 7.00 to 11.00
C[C@@H](OCC1(c2ccc(F)cc2)CCN(C)CC1)c1cc(Cl)cc2c(Cl)n(CC(F)(F)F)nc12 [Example 116, (R)-3,5-dichloro-7-(1-((4-(4-fluorophenyl-1-methyl)piperidine-4-yl)methoxy)ethyl)-2-(2,2,2-trifluoroethyl)-2H-indazole] |  | 7.00 to 11.00 | 7.00 to 11.00
C[C@@H](OCC1(c2ccccc2)CCN(C)CC1)c1cc(Cl)cc2c(Br)n[nH]c12 [Example 118, (R)-3-bromo-5-chloro-7-(1-((1-methyl-4-phenylpiperidin-4yl)methoxy)ethyl)-1H-indazole] |  | 7.00 to 11.00 | 7.00 to 11.00
C[C@@H](OCC1(c2ccccc2)CCNCC1)c1cc(Cl)cc2c(Cl)n[nH]c12 [Example 119, (R)-3,5-dichloro-7-(1-((4-phenylpiperidin-4yl)methoxy)ethyl)-1H-indazole] |  | 7.00 to 11.00 | 7.00 to 11.00
C[C@@H](OCC1(c2ccccc2)CCN(C)CC1)c1cc(Cl)cc2c(Cl)n[nH]c12 [Example 120, (R)-3,5-dichloro-7-(1-((1-methyl-4-phenylpiperidin-4yl)methoxy)ethyl)-1H-indazole] |  | 7.00 to 11.00 | 7.00 to 11.00
C[C@H](OCC1(c2ccc(F)cc2)CCNCC1)c1cc(Cl)cc2c(Cl)n[nH]c12 [Example 121, (S)-3,5-dichloro-7-(1-((4-(4-fluorophenyl)piperidin-4-yl)methoxy)ethyl)-1h-indazole] |  | < 6.52 | 7.00 to 11.00
C[C@H](OCC1(c2ccc(F)cc2)CCN(C)CC1)c1cc(Cl)cc2c(Cl)n[nH]c12 [Example 122, (S)-3,5-dichloro-7-(1-((4-(4-fluorophenyl)-1-methylpiperidin-4-yl)methoxy)ethyl)-1h-indazole] |  | < 6.52 | 7.00 to 11.00
Cc1cn(C)c2c(C(C)OCC3(c4ccc(F)cc4)CCN(C)CC3)cc(C(F)(F)F)cc12 (centres unmarked) [Example 125, 7-(1-((4-(4-fluorophenyl)-1-methylpiperidin-4-yl)methoxy)ethyl)-1,3-dimethyl-5-(trifluoromethyl)-1H-indole] |  | 7.00 to 11.00 | 7.00 to 11.00
CN1CCC(COCc2cc(Br)cc3ncn(CC4CC4)c23)(c2ccccc2)CC1 [Example 132] |  | 7.00 to 11.00 | 7.00 to 11.00
CCn1cnc2c([C@@H](C)OCC3(c4ccccc4)CCN(C)CC3)cc(C(F)(F)F)cc21 [Example 138, (R)-1-ethyl-4-(1-((1-methyl-4-phenylpiperidin-4-yl)methoxy)ethyl)-6-(trifluoromethyl)-1H-benzo[d]imidazole] |  | 7.00 to 11.00 | 7.00 to 11.00
C[C@@H](O[C@H]1OCCN(Cc2n[nH]c(=O)[nH]2)[C@H]1c1ccc(F)cc1)c1cc(C(F)(F)F)cc(C(F)(F)F)c1 [MK-869] | Robust antidepressant activity |  | 
